# System: HUVECs
# Assay: Cord formation assay, HUVEC-eGFP co-cultured with human dermal fibroblasts
# Type: cell-based
# Settings: VEGF 15 ng/mL, 6 days; 0.5 µM (Sunitinib 1 μM)
# Method: The cord formation assay was performed according to the IncuCyte Angiogenesis PrimeKit Assay protocol (Cell Player Angiogenesis PrimeKit, Essen BioScience). In brief, GFP labeled HUVEC cells and human dermal fibroblasts were mixed in a 1:20 ratio and seeded per well in a 96-well plate (3150 cells in total). Thereafter, the cells were exposed to VEGF alone or in combination with the compounds (at indicated concentrations) in a complete assay medium. Pictures were captured every 6 h for up to 9 days To monitor the cord formation. The medium was refreshed every 2 or 3 days. Cords formation was visualized by the GFP fluorescence, and cord length was quantified with the instrument’s software. All the experiments were repeated at least three times, and representative experiments are shown.
structure (smiles),measurement,value
"CCN(CC)CCNC(=O)c1c(C)[nH]c(/C=C2\C(=O)Nc3ccc(F)cc32)c1C [Sunitinib, reference compound]",effect on VEGF-induced EC cord formation,strongly suppressed
